The source of these data is ChEMBL document CHEMBL3137667, “[Drug-induced liver injury; fourteenth updated edition of the bibliographic database of liver injuries and related drugs]” (Gastroenterol Clin Biol, 2004).

Each structure is given as a SMILES string.

For data set [1] the following is noted: human, serum.
The conditions of data set [2]: human.
For data set [3] the following is noted: human. This is another data set of the same source.
For data set [4] the following is noted: human. This is another data set of the same source.
For data set [5] the following is noted: human. This is another data set of the same source.
The conditions of data set [6]: human, serum, 4383 h.
The conditions of data set [7]: human. This is another data set of the same source.
The conditions of data set [8]: human. This is another data set of the same source.
For data set [9] the following is noted: human, serum. The source holds these as a separate data set.
For data set [10] the following is noted: human. The source holds these as a separate data set.
Data set [11] is described as follows: Highest frequency of acute liver toxicity observed during clinical trials, expressed as a percentage. [column '% AIGUE' in source]. The settings on record: human.
The conditions of data set [12]: human. The source holds these as a separate data set.
For data set [13] the following is noted: human. The source holds these as a separate data set.
Data set [14] can be described thus: Highest frequency of moderate liver toxicity observed during clinical trials, expressed as a percentage. [column '% BIOL' in source]. The settings on record: human.
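Wherever Hepatotoxicity (association with vascular disease) is given: count of indexed literature references reporting vascular liver injury in humans, e.g. peliosis hepatitis, hepatic veno-occlusive disease or Budd-Chiari syndrome.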
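Wherever Hepatotoxicity (benign tumour) is given: value is a count of indexed literature references citing a benign tumour confirmed by histopathology.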
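Wherever Hepatotoxicity (choleostasis) is given: human cholestatic liver injury, shown by histopathology or by peak ALT or AST elevation over alkaline phosphatase ratio below 2, value counts indexed literature reports.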
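Wherever Hepatotoxicity (chronic liver disease) is given: chronic liver injury confirmed by histopathology or persistently raised serum aminotransferase activity beyond 6 months, value given as the count of indexed literature references.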
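Wherever Hepatotoxicity (cirrhosis) is given: value is a count of indexed literature references reporting cirrhosis confirmed by histopathology.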
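Wherever Hepatotoxicity (cytolytic) is given: human cytolytic liver injury, shown by histopathology or by a ratio above 5 of peak ALT or AST elevation to alkaline phosphatase elevation, value counts indexed references.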
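Wherever Hepatotoxicity (granulomatous hepatitis) is given: value is a count of indexed literature references reporting granulomatous liver disease confirmed by histopathology.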
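Wherever Hepatotoxicity (malignant tumour) is given: malignant tumour confirmed by histopathology, value gives the count of indexed literature references reporting it.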
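Wherever Hepatotoxicity (severe hepatitis) is given: human clinical data: severe hepatitis, meaning potentially life-threatening liver failure or clinically observed cases, the value counts how many indexed literature references report it.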
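Wherever Hepatotoxicity (steatosis) is given: steatosis confirmed by histopathology, value is the count of indexed references.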

Take `Nc1ccc(S(=O)(=O)Nc2nccs2)cc1` [SULFATHIAZOLE]: the “Hepatotoxicity (moderate)” value in data set [1] came to 1; in data set [14] (Liver), 0%. For the same compound, the “Hepatotoxicity (cytolytic)” value in data set [2] (Liver) is given as 0. The “Hepatotoxicity (malignant tumour)” value in data set [3] is reported as 0. Also, the “Hepatotoxicity (cirrhosis)” value in [4] is 0. Further, the “Hepatotoxicity (association with vascular disease)” value in data set [5] is reported as 0. Further, in data set [6], the “Hepatotoxicity (chronic liver disease)” value came out at 0. The “Hepatotoxicity (choleostasis)” value in data set [7] (Liver) turned out to be 0. Besides, in data set [8], the “Hepatotoxicity (steatosis)” value was 0. Further, the “Hepatotoxicity (acute)” value is 0 in data set [9] and 0% in data set [11] (Liver). For the same compound, the “Hepatotoxicity (severe hepatitis)” value in data set [10] (Liver) was determined as 0. Besides, the “Hepatotoxicity (benign tumour)” value in data set [12] came out at 0. The “Hepatotoxicity (granulomatous hepatitis)” value in [13] (Liver) amounted to 0.

In the case of `Cc1cc(NS(=O)(=O)c2ccc(N)cc2)nc(C)n1` [SULFISOMIDINE], the “Hepatotoxicity (moderate)” value turned out to be 0 in data set [1] and 0% in data set [14]. The “Hepatotoxicity (cytolytic)” value in data set [2] was 0. Also, the “Hepatotoxicity (malignant tumour)” value in data set [3] is on record as 0. Also, the “Hepatotoxicity (cirrhosis)” value in data set [4] was 0. Moreover, the “Hepatotoxicity (association with vascular disease)” value in [5] is 0. The “Hepatotoxicity (chronic liver disease)” value in [6] turned out to be 0. Also, in data set [7], the “Hepatotoxicity (choleostasis)” value is 0. Besides, in data set [8], the “Hepatotoxicity (steatosis)” value was 0. Further, the “Hepatotoxicity (acute)” value was 1 in data set [9] and 0% in data set [11]. Further, the “Hepatotoxicity (severe hepatitis)” value in [10] worked out at 0. The “Hepatotoxicity (benign tumour)” value in data set [12] turned out to be 0. Moreover, the “Hepatotoxicity (granulomatous hepatitis)” value in [13] came to 0.

`CC1(C)S[C@@H]2[C@H](NC(=O)[C@H](N)c3ccccc3)C(=O)N2[C@H]1C(=O)OCOC(=O)[C@@H]1N2C(=O)C[C@H]2S(=O)(=O)C1(C)C` [SULTAMICILLIN]: the “Hepatotoxicity (moderate)” value in [1] was 61; in data set [14] it was 43%. The “Hepatotoxicity (cytolytic)” value in data set [2] turned out to be 0. For the same compound, in [3], the “Hepatotoxicity (malignant tumour)” value was determined as 0. Moreover, in data set [4], the “Hepatotoxicity (cirrhosis)” value amounted to 0. Besides, the “Hepatotoxicity (association with vascular disease)” value in data set [5] turned out to be 0. For the same compound, the “Hepatotoxicity (chronic liver disease)” value in data set [6] is given as 0. Also, the “Hepatotoxicity (choleostasis)” value in [7] amounted to 1. Also, the “Hepatotoxicity (steatosis)” value in [8] worked out at 0. Also, the figures for the “Hepatotoxicity (acute)” value in [9] and in data set [11] were 1 and 0.2%, respectively. Besides, the “Hepatotoxicity (severe hepatitis)” value in [10] is given as 0. In [12], the “Hepatotoxicity (benign tumour)” value is recorded as 0. Also, the “Hepatotoxicity (granulomatous hepatitis)” value in data set [13] was found to be 0.

On to `Cc1nc(C)c2c(n1)N(Cc1ccc(-c3ccccc3-c3nnn[nH]3)cc1)C(=O)CC2` [TASOSARTAN], for which the “Hepatotoxicity (moderate)” value is 2 in [1] and 1.9% in data set [14]. Moreover, the “Hepatotoxicity (cytolytic)” value in data set [2] amounted to 0. Also, the “Hepatotoxicity (malignant tumour)” value in data set [3] was determined as 0. Further, in [4], the “Hepatotoxicity (cirrhosis)” value was found to be 0. Further, the “Hepatotoxicity (association with vascular disease)” value in [5] is given as 0. The “Hepatotoxicity (chronic liver disease)” value in [6] worked out at 0. Also, the “Hepatotoxicity (choleostasis)” value in [7] is 0. Moreover, the “Hepatotoxicity (steatosis)” value in data set [8] is reported as 0. Further, the “Hepatotoxicity (acute)” value in data set [9] is reported as 0; in data set [11] it was 0%. Also, the “Hepatotoxicity (severe hepatitis)” value in [10] is 0. Also, in data set [12], the “Hepatotoxicity (benign tumour)” value was 0. In addition, the “Hepatotoxicity (granulomatous hepatitis)” value in data set [13] was 0.

As for `CC[C@H]1OC(=O)[C@H](C)C(=O)[C@H](C)[C@@H](O[C@@H]2O[C@H](C)C[C@H](N(C)C)[C@H]2O)[C@](C)(OC)C[C@@H](C)C(=O)[C@H](C)[C@H]2N(CCCCn3cnc(-c4cccnc4)c3)C(=O)O[C@]12C` [TELITHROMYCIN], the “Hepatotoxicity (moderate)” value in data set [1] came to 4; in data set [14] (Liver), 1.8%. In addition, the “Hepatotoxicity (cytolytic)” value in [2] (Liver) turned out to be 0. Also, the “Hepatotoxicity (malignant tumour)” value in data set [3] came out at 0. In addition, the “Hepatotoxicity (cirrhosis)” value in [4] stood at 0. Moreover, the “Hepatotoxicity (association with vascular disease)” value in [5] is listed as 0. For the same compound, the “Hepatotoxicity (chronic liver disease)” value in data set [6] was 0. The “Hepatotoxicity (choleostasis)” value in data set [7] (Liver) is 0. In data set [8], the “Hepatotoxicity (steatosis)” value worked out at 0. Moreover, the “Hepatotoxicity (acute)” value in data set [9] is listed as 0; in data set [11] (Liver) it was 0%. In addition, the “Hepatotoxicity (severe hepatitis)” value in data set [10] (Liver) is on record as 0. For the same compound, in data set [12], the “Hepatotoxicity (benign tumour)” value was 0. Moreover, the “Hepatotoxicity (granulomatous hepatitis)” value in [13] (Liver) is on record as 0.

Regarding `CC1CN(c2cc3c(cc2F)c(=O)c(C(=O)O)cn3-c2ccc(F)cc2F)CCN1` (stereo unspecified) [TEMAFLOXACIN], the “Hepatotoxicity (moderate)” value in data set [1] is reported as 33; in data set [14], 44.4%. Further, the “Hepatotoxicity (cytolytic)” value in [2] is reported as 0. Further, the “Hepatotoxicity (malignant tumour)” value in data set [3] is 0. Also, the “Hepatotoxicity (cirrhosis)” value in data set [4] was 0. In addition, the “Hepatotoxicity (association with vascular disease)” value in data set [5] came out at 0. Further, in [6], the “Hepatotoxicity (chronic liver disease)” value was 0. The “Hepatotoxicity (choleostasis)” value in data set [7] worked out at 0. The “Hepatotoxicity (steatosis)” value in data set [8] amounted to 0. Moreover, the figures for the “Hepatotoxicity (acute)” value in data set [9] and in [11] were 0 and 0%, respectively. In data set [10], the “Hepatotoxicity (severe hepatitis)” value is on record as 0. Also, in data set [12], the “Hepatotoxicity (benign tumour)” value turned out to be 0. Besides, in data set [13], the “Hepatotoxicity (granulomatous hepatitis)” value is recorded as 0.

For the compound `Cn1nnc2c(C(N)=O)ncn2c1=O` [TEMOZOLOMIDE], the “Hepatotoxicity (moderate)” value in [1] turned out to be 1; in [14] it was 47.5%. Also, in data set [2], the “Hepatotoxicity (cytolytic)” value is reported as 1. Also, the “Hepatotoxicity (malignant tumour)” value in [3] was found to be 0. Moreover, the “Hepatotoxicity (cirrhosis)” value in [4] is reported as 0. Besides, in data set [5], the “Hepatotoxicity (association with vascular disease)” value was 0. In data set [6], the “Hepatotoxicity (chronic liver disease)” value was determined as 0. Moreover, in [7], the “Hepatotoxicity (choleostasis)” value was found to be 0. Further, the “Hepatotoxicity (steatosis)” value in [8] is reported as 0. Besides, the “Hepatotoxicity (acute)” value in [9] was determined as 1; in data set [11], 3%. In addition, the “Hepatotoxicity (severe hepatitis)” value in [10] was 0. Further, in [12], the “Hepatotoxicity (benign tumour)” value is 0. Moreover, the “Hepatotoxicity (granulomatous hepatitis)” value in data set [13] was found to be 0.

Take `NC(=O)N1C(=O)/C(=C(\O)c2cccs2)c2cc(Cl)ccc21` [TENIDAP]: the “Hepatotoxicity (moderate)” value in data set [1] worked out at 3; in data set [14] it was 18.8%. Moreover, the “Hepatotoxicity (cytolytic)” value in [2] turned out to be 1. In data set [3], the “Hepatotoxicity (malignant tumour)” value was found to be 0. For the same compound, the “Hepatotoxicity (cirrhosis)” value in data set [4] amounted to 0. Besides, the “Hepatotoxicity (association with vascular disease)” value in [5] was determined as 0. In addition, in data set [6], the “Hepatotoxicity (chronic liver disease)” value was determined as 0. The “Hepatotoxicity (choleostasis)” value in [7] is recorded as 1. Moreover, the “Hepatotoxicity (steatosis)” value in data set [8] is recorded as 0. The “Hepatotoxicity (acute)” value worked out at 2 in data set [9] and 0.8% in [11]. Further, in [10], the “Hepatotoxicity (severe hepatitis)” value is 0. Moreover, the “Hepatotoxicity (benign tumour)” value in data set [12] was 0. In data set [13], the “Hepatotoxicity (granulomatous hepatitis)” value is recorded as 0.

Consider `COc1ccc(-n2nc(CCC(=O)N(C)O)cc2-c2ccc(Cl)cc2)cc1` [TEPOXALIN], for which the figures for the “Hepatotoxicity (moderate)” value in data set [1] and in data set [14] were 1 and 2.5%, respectively. In data set [2], the “Hepatotoxicity (cytolytic)” value is on record as 0. Further, the “Hepatotoxicity (malignant tumour)” value in data set [3] was determined as 0. The “Hepatotoxicity (cirrhosis)” value in [4] turned out to be 0. Moreover, in data set [5], the “Hepatotoxicity (association with vascular disease)” value worked out at 0. Moreover, in [6], the “Hepatotoxicity (chronic liver disease)” value was determined as 0. Further, the “Hepatotoxicity (choleostasis)” value in [7] is recorded as 0. In data set [8], the “Hepatotoxicity (steatosis)” value was determined as 0. The results for the “Hepatotoxicity (acute)” value in data set [9] and in data set [11] were 0 and 0%, respectively. Moreover, the “Hepatotoxicity (severe hepatitis)” value in data set [10] amounted to 0. The “Hepatotoxicity (benign tumour)” value in data set [12] was found to be 0. Moreover, the “Hepatotoxicity (granulomatous hepatitis)” value in [13] was found to be 0.
